Measured values taken from US4882432A, “Polycyclic-carbamic acid piperazinoalkyl esters and amides” (American Home Products Corporation, priority 1989, dated 1989).

Experiments:
[1] = biological target: T1, 5-HT1A serotonin receptor subtype (Rattus norvegicus, UniProt P19327); experiment: displacement of ^3 H-8-OH DPAT from the 5-HT1A serotonin receptor subtype (Hall et al.); format: binding; details: for inhibition at 1 µM: 1 μM test compound, read-out: % Inhibition at 1 μM (Affinity for 5-HT1A Receptor Sites); for Ki: calculated from IC50 values, read-out: Ki (Affinity for 5-HT1A Receptor Sites)
T1 construct: from tissue
T1 sequence (P19327 1-422): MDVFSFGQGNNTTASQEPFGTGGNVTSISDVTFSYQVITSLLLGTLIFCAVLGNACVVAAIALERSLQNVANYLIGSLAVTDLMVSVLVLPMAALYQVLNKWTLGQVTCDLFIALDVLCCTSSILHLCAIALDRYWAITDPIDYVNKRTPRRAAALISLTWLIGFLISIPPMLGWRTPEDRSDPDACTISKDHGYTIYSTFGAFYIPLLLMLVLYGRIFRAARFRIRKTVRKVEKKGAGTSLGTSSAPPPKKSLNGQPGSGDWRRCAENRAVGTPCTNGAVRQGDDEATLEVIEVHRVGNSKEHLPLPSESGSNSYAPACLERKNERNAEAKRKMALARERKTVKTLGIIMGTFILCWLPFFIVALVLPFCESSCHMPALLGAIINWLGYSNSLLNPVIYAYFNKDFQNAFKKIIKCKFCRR
Excerpt: The serotoninergic properties of the compounds of this invention were established by the procedure of Hall et al., J. Neurochem.

[2] = biological target: T2, limbic D2 (dopamine) receptor (Rattus norvegicus, UniProt P61169); experiment: inhibition of ^3 H-spiroperidol binding to limbic brain tissue (D2 receptor affinity); details: 1 μM test compound, read-out: % Inhibition at 1 μM (Affinity for D2 Receptor Sites)
T2 construct: from tissue
Procedure: The compounds of this invention are antidepressant, anxiolytic agents useful in the treatment of depression and/or anxiety as a singular, primary mental problem as well as secondary, attending problems such as sexual dysfunction. […] The D2 receptor affinity of the compounds of this invention was determined by a modification of the test procedure of Fields et al., Brain Res. 136, 578 (1977) and Yamamura et al., eds., Neurotransmitter Receptor Binding, Raven Press, N.Y. (1978) as discussed in U.S. Pat. No. 4,636,563. The percentage reduction of ^3 H-spiroperidol binding at 1 μM concentration of test compound is reported, infra.

[3] = literature; cited from earlier work

T2 sequence (P61169 whole entry): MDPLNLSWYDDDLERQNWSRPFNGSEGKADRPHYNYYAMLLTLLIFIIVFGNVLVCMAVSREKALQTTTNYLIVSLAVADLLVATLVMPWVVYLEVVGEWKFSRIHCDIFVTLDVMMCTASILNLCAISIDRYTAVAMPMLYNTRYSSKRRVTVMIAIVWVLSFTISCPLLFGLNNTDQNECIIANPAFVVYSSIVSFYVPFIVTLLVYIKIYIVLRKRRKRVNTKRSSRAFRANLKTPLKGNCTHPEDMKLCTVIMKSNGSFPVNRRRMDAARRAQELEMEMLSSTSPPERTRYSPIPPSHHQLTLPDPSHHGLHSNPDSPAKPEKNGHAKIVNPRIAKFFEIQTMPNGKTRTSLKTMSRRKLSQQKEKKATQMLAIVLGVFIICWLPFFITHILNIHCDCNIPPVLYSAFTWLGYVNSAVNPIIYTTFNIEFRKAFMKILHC

SMILES: O=C(NCCN1CCN(c2cccc(Cl)c2)CC1)NC12CC3CC(CC(C3)C1)C2 [Example 3, N-[2-[4-(3-chlorophenyl)-1-piperazinyl]ethyl]-N'-tricyclo[3.3.1.1(3,7)]dec-1-ylurea]
- inhibition at 0.1 µM ([1]; 100 nM test compound, read-out: % Inhibition at 100 nM (Affinity for 5-HT1A Receptor Sites)): 54%
- inhibition at 1 µM [2]: 56%

SMILES: COc1ccccc1N1CCN(CCNC(=O)NC23CC4CC(CC(C4)C2)C3)CC1 [Example 2]
- inhibition at 1 µM [1]: 100%

SMILES: O=C(NCCN1CCN(c2ncccn2)CC1)NC12CC3CC(CC(C3)C1)C2 [Example 1, N-[2-[4-(2-pyrimidyl)-1-piperazinyl]ethyl]-N'-tricyclo[3.3.1.1(3,7)]dec-1-ylurea]
- inhibition at 1 µM [1]: 91%
- Ki [1]: 52 nM
- inhibition at 1 µM [2]: 15%

SMILES: O=C(NCCCN1CCN(c2ncccn2)CC1)NC12CC3CC(CC(C3)C1)C2 [Example 4, N-[3[4-(2-pyrimidyl)-1-piperazinyl]propyl]-N'-tricyclo[3.3.1.1(3,7)]dec-1-ylurea]
- inhibition at 1 µM [1]: 100%
- Ki [1]: 7 nM
- inhibition at 1 µM [2]: 10%

SMILES: Cc1nc2sccn2c(=O)c1CCN1CCC(=C(c2ccc(F)cc2)c2ccc(F)cc2)CC1 [Ritanserin]
- clinical efficacy as anxiolytic-antidepressant agents (in words) [3]: demonstrate clinical efficacy as anxiolytic-antidepressant agents

SMILES: COc1ccccc1N1CCN(CCCNC(=O)NC23CC4CC(CC(C4)C2)C3)CC1 [Example 5, N-[3-[4-(2-methoxyphenyl)-1-piperazinyl]propyl]-N'-tricyclo[3.3.1.1(3,7)]dec-1-ylurea]
- inhibition at 1 µM [1]: 100%
- inhibition at 1 µM [2]: 66%

SMILES: O=C(NCCCN1CCN(c2cccc(Cl)c2)CC1)NC12CC3CC(CC(C3)C1)C2 [Example 6, N-[3-[4-(3-chlorophenyl)-1-piperazinyl]propyl]-N'-tricyclo[3.3.1.1(3,7)]dec-1-ylurea]
- inhibition at 1 µM [1]: 95%
- Ki [1]: 45 nM
- inhibition at 1 µM [2]: 38%
